Reference: US7678833B2 (Allium Vitalis Incorporated, priority 2006, dated 2010)
“Also recorded” adds a separate entry of the source. Where two headings read alike, the source gives them in different places.

Columns and labels:
red blood cells (RBCs) = test: SAMC incubated with red blood cells: formation and localization of AllylSH and DADS; format: cell-based; conditions: for extracellular AllylSH concentration: RBCs with 0.5 mM SAMC
Description: For these experiments, 0.25 ml of packed RBCs were suspended in 1.75 ml of phosphate buffer solution (PBS) along with an initial concentration 0.5 mM of SAMC.
The experimental results are graphed in FIG. 3.
The significant effect of glucose is due in part to the energy requirement for the reduction of GSSG to GSH by glutathione reductase, and the need for this “reductive power” to increase the concentration of thiols relative to the concentration of disulfides.

[1] = plasma albumin level as measure of plasma thiol/disulfide redox (applicant); format: in vivo, human
Text: Subsequently, an alternative, simpler assay procedure for the thiol/disulfide ratio was found in the literature. Other researchers had determined that the level of plasma albumin correlates linearly with the thiol/disulfide redox (BLOOD92:59, in which paper this redox relationship is expressed by the cystine/thiol ratio).
This method of determination of the plasma redox is of great interest to the applicant because the albumin concentration is one of the standard measurements performed in medical lab reports. This meant that historical data was available that could show the age-related decline in albumin level and confirm its reversal with the administration of dietary supplement capsules containing protein bound allyl mercaptan. It could also be used to confirm that the effect was reversible (by discontinuing the administration of the capsules) and repeatable (by the resumption of the administration of the capsules).
The historical albumin levels for the applicant are as follows:
Over the next 3 months, an experiment was performed to determine whether this effect was reversible, and then to see if the effect was repeatable:
The age related initial decline of approximately −0.05 per year is also shown extended by a dotted trend line. The presumed departure from the trend that occurred when the supplement use was started is indicated by the first solid line segment.

[2] = n-octanol/water; cited from earlier work
[3] = in vivo; cited from earlier work
[4] = HIV patients, 7 months, 600 mg/day to 3600 mg/day; cited from earlier work
[5] = 8 weeks, 8000 mg/day; cited from earlier work
cells = conditions: cited from earlier work
[6] = first hour after consumption; cited from earlier work
mucosal cell = conditions: within 3 hours; cited from earlier work
trypsin enzyme inhibitor = conditions: soy flour, cysteine 2% by weight, 65 degrees C. for 1 hour; cited from earlier work
acetaminophen = conditions: mice, cited from earlier work
heapatocytes = conditions: hepatocytes exposed to acetaminophen, among 8 cysteine prodrugs tested; cited from earlier work
[7] = cited from earlier work

C=CCS [AllylSH, AllylThiol]
membrane permeability (red blood cells (RBCs)): membrane permeable | extracellular AllylSH concentration (red blood cells (RBCs); fed glucose): continued to rise significantly | extracellular AllylSH concentration (red blood cells (RBCs); glucose starved): no increase in AllylSH after the initial rise | albumin level ([1]; 180 mg AllylSH each day): 5.1 g/dL | albumin level ([1]; +1 mo., AllylSH consumption discontinued): 4.9 g/dL | albumin level ([1]; donor one, ~20 mg AllylSH each day): 5.0 g/dL | albumin level ([1]; donor two, ~20 mg AllylSH each day): 5.0 g/dL | albumin level ([1]; second +1 mo., AllylSH consumption still discontinued): 4.5 g/dL | albumin level ([1]; third +1 mo., consumption resumed at 180 mg AllylSH/day): 4.7 g/dL | albumin level ([1]; ~5 mg AllylSH/day): 4.6 g/dL

C=CCSSCC=C [DADS, Diallyl Disulfide]
partition coefficient [2]: 25

CC(=O)N[C@@H](CS)C(=O)O [NAC, N-acetylcysteine]
toxicity [3]: relatively non-toxic | plasma albumin increase [4]: approximately 5% | toxicity [5]: no reported toxicity | whole blood glutathione increase [5]: approximately 10%

O=C1N[C@H](C(=O)O)CS1 [OTZ, L-2-Oxo-thiazolidine]
toxicity [3]: relatively non-toxic

C=CCSSC[C@H](N)C(=O)O [SAMC, S-AllylMercaptoCysteine]
total glutathione level of cells (cells): significantly increase; also recorded: significant increases | intracellular formation of AllylSH (red blood cells (RBCs); RBCs, 0.5 mM SAMC, 10 and 30 minutes, with glucose (10 mM) vs without glucose): significantly higher

Cc1c(C)c2c(c(C)c1O)CC[C@@](C)(CCC[C@H](C)CCC[C@H](C)CCCC(C)C)O2 [alpha-tocopherol, reference compound]
partition coefficient [2]: 550

[AsH3] [arsenic]
excreted directly from the liver to the bile [6]: ~40% | glutathione concentration in the mucosal cell (mucosal cell): twice the normal concentration

N[C@@H](CS)C(=O)O [cysteine, Cysteine]
deactivation of trypsin enzyme inhibitor (trypsin enzyme inhibitor): over 90%

D-glucose-L-cysteine [DGC]
hepatic injury from acetaminophen administration (acetaminophen; administered 4 hours previously): significantly reduced | hepatic injury from acetaminophen administration (acetaminophen; administered simultaneously): not effective | raising the GSH level (heapatocytes): most effective

sodium arsenate
liver glutathione level ([7]; protein deficient (6%) rats, control 74): 134 micrograms per gram | liver glutathione level ([7]; well fed rats (18% protein in the diet), control 88): 123 micrograms per gram
